Reference: article PMC11786100, “Chronic GIPR agonism results in pancreatic islet GIPR functional desensitisation” (Molecular Metabolism, 2025)
Where two headings read alike, the source gives them in different places.

How the values were obtained:
[1] = tested on: dispersed islet cells; assay: cADDis cAMP concentration-response in dispersed islets; assay type: cell-based, mouse; settings: for EC50: three-parameter fit, n=5, read-out: calculated EC50, cAMP in dispersed islets
Method: (§1) Primary cultures of mouse hypothalamic neurons and dispersed pancreatic islets were transduced with the Green Up cADDis biosensor (Montana Molecular, US). Pancreatic islets from CAMPER^Pdx−1-CreERT2 and CAMPER^Som-Cre mice were not transduced. Cells were pre-treated with peptides as specified, dissolved in culture media. Following 4 h or overnight incubation and a 1-hour washout period, cells were imaged using an epifluorescence microscope at baseline (t = 3 min), following peptide addition (t = 10 min, unless specified otherwise), and following 3-isobutyl-1-methylxanthine (IBMX) (500 μM) and forskolin (FSK) (50 μM) addition (t = 3 min) to maximally stimulate the sensor. In pre-treatment experiments, islet cell fluorescence was normalised to the IBMX/FSK response which was set as 100%. In non-pre-treatment experiments, islet and neuronal cell fluorescence was normalised to both the baseline and IBMX/FSK response. The area-under-the-curve (AUC) for each cell was quantified. Full details of isolation, transduction, plating, imaging and image analysis is provided in the supplementary methods.
Dispersed islets: A cell suspension of dispersed islets in RPMI-1640 + 10% FBS + 1% P/S (islet complete media) was seeded onto square 96 well µ-plates (Ibidi, UK), coated with 0.01% poly-D-lysine hydrobromide (Sigma-Aldrich, UK) and 25 µg/ml mouse laminin (Thermo Fisher, UK). For cADDis experiments, cells were transduced with the Green Up cADDis biosensor (15 μL of cADDis, 1.5 μL of sodium butyrate per well: Montana Molecular, US). Cells were incubated overnight (37°C, 95%:5% O2:CO2 ratio).
Cells were imaged in Krebs buffer with 6 mM glucose and 0.1% BSA (unless 10% FBS was specified) at 37°C using an automated epifluorescence microscope (modified Nikon Ti-2E with LED illumination). Multiple fields of view (FOV) were imaged in parallel (for islets, multiple wells of a 96 well plate were imaged in parallel), allowing hundreds to thousands of cells to be imaged every minute throughout the time course. For all acquisitions, the first three minutes were baseline recording pre-peptide addition and the last three minutes were a positive control following IBMX (500 μM) and forskolin (50 μM) addition to maximally stimulate the sensor.
cAMP quantification from the raw islet/neuronal images was performed using Fiji v1.54f (NIH). For each acquisition, a flat-field (BaSiC [3*]) correction was applied, and intensity thresholding enabled cell-containing regions to be identified as regions-of-interest (ROIs). The fluorescence intensity of each ROI was measured at each time point. In pre-treatment experiments, islet cell fluorescence was normalised to the maximal IBMX/FSK response which was set as 100%. For non-pre-treatment experiments, neuronal and islet cell fluorescence were normalised to both the baseline and maximal IBMX/FSK response. The AUC during peptide stimulation for each cell was quantified. Neurons with an AUC greater than 75 (representing a response 15 % of the maximum IBMX/FSK response) were deemed responder neurons.
We aimed to determine appropriate pre-treatment doses of GIPR agonists which would produce detectable cAMP responses, indicating target engagement, and were compatible with an extended incubation in complete medium, which could influence ligand availability via binding to serum proteins. We first performed concentration-response analysis in dispersed islets transduced with cADDis in the presence of 10% FBS (Figure S2A, B, D, E).
To determine a sensible re-challenge dose of GIPR agonists, a further concentration-response analysis was conducted in cADDis-transduced dispersed islets in imaging buffer (Krebs buffer + 6 mM glucose + 0.1% BSA, i.e. without FBS) (Figure S2C, F). […] Therefore, 1 μM of GIP108 and 100 nM of GIP were chosen as peri-maximal re-stimulation doses for the remaining islet cAMP assays.
GLP-1R agonist pre-treatment dose selection was performed concurrently with GIPR agonist dose selection.

[2] = Peptide stability in complete medium with dispersed islet cells (cAMP bioactivity assay); assay type: in vitro ADME, mouse
Method: AD-293 cells were added to a 12-well plate and maintained in 2 ml complete DMEM. 1 μg of specified plasmid DNA was added to each well alongside Lipofectamine 2000 (Thermo Fisher, UK). cAMP production was quantified 24 hours following transfection using homogenous time resolved fluorescence (HTRF), specifically the cAMP-Gs Dynamic 2 kit (Cisbio, France). Peptides and cells were diluted in DMEM + 1% P/S + 0.1% BSA. For peptide stability testing, cells, fresh peptide and peptide incubated with dispersed islet cells were diluted in RPMI-1640 (Thermo Fisher, UK) + 10% FBS + 1% P/S. 10 μl of peptide and 10 μl of cell suspension were added in duplicate to an opaque 96-well plate (Grenier Bio-One, Austria) and incubated at 37°C for 30 minutes. 10 μl of cAMP-d2 and anti-cAMP cryptate, both diluted in lysis buffer, were added in quick succession as per the manufacturer’s protocol. The plates were then incubated at room temperature for 45 minutes and read using the SpectraMax i3x (Molecular Devices, US).
Three-parameter curve fitting was applied.

[3] = tested on: murine hypothalamic neurons; assay: cADDis cAMP imaging in primary hypothalamic neurons; assay type: cell-based, mouse; settings: 5-minute stimulation, n=4
Method: as §1
Primary cultures of hypothalamic neurons were prepared from 6-week-old male and female mice as described previously [2*]. A minor difference was that the neuronal pellet was resuspended in Neurobasal-A medium containing 0.25% Glutamax, 2% B27 and 25 ng/ml NGF (all Thermo Fisher, UK) (neuronal culture media).
Hypothalamic neurons: 100 μL cell suspension of neurons in neuronal culture media was seeded on 35 mm petri dish (MatTek Corporation), pre-coated with 0.01% poly-D-lysine hydrobromide. […]
(§2) cAMP quantification from the raw islet/neuronal images was performed using Fiji v1.54f (NIH). […] The fluorescence intensity of each ROI was measured at each time point. In pre-treatment experiments, islet cell fluorescence was normalised to the maximal IBMX/FSK response which was set as 100%. For non-pre-treatment experiments, neuronal and islet cell fluorescence were normalised to both the baseline and maximal IBMX/FSK response. The AUC during peptide stimulation for each cell was quantified. […]

[4] = target: T1, GLP-1R (Mus musculus, UniProt O35659); assay: Ex vivo islet GLP-1R desensitisation (pre-treat/washout/rechallenge cAMP); assay type: cell-based; settings: dispersed islets, cADDis
T1 construct: from tissue; host or cells: dispersed mouse pancreatic islets
T1 sequence (O35659 22-463): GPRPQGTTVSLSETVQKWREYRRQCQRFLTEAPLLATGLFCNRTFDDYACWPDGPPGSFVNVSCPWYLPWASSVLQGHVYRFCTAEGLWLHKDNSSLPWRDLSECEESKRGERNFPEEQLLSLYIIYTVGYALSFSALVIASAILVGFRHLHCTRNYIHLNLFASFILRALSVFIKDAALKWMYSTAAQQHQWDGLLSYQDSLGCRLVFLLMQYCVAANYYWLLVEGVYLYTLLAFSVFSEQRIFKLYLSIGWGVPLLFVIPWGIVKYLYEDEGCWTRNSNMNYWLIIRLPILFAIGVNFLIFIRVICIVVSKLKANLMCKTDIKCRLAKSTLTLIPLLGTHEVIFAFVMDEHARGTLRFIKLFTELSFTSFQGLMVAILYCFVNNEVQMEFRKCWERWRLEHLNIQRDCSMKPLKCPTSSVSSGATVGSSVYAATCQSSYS
Method: as §1, with “Full details of isolation, transduction, plating, imaging and image analysis is provided in the supplementary methods.” left out
as §2, with “For non-pre-treatment experiments, neuronal and islet cell fluorescence were normalised to both the baseline and maximal IBMX/FSK response.” left out

[5] = imaging buffer (Krebs + 6 mM glucose + 0.1% BSA, without FBS)
[6] = in the presence of 10% FBS, stepwise addition

| concentration remaining from 500 nM after 24 hours [2] | Compound | doses above which cAMP responses were detectable [1, 5] | EC50 ([1]; imaging buffer (Krebs buffer + 6 mM glucose + 0.1% BSA, without FBS)) | doses above which cAMP responses were detectable ([1]; in the presence of 10% FBS) | EC50 [1, 6] | stability at 24 hours ([2]; 1 μM in complete medium with dispersed islet cells, cAMP bioactivity in mouse GIPR AD-293 cells) | concentration remaining from 500 nM after 24 hours ([2]; peptide at 1 μM in complete medium (RPMI-1640 + 10% FBS + 1% P/S) with dispersed islet cells, 24 h, concentrations halved during assay, read-out cAMP in mouse GIPR-expressing AD-293 cells, n=4) | cAMP response of hypothalamic neurons ([3]; 100 nM and 1 μM) | cAMP response to GLP-1 (100 nM) after GIP108 pre-treatment ([4]; 24-hour pre-treatment with GIP108 (1 μM), n=3) | cAMP response of hypothalamic neurons ([3]; 10 and 100 nM) | GLP-1R desensitisation after 4 h pre-treatment ([4]; pre-treatment GLP-1 (10 nM), rechallenge GLP-1 (1 nM), n = 3) |
| --- | --- | --- | --- | --- | --- | --- | --- | --- | --- | --- | --- |
| – | CC[C@H](C)[C@H](NC(=O)[C@H](CO)NC(=O)[C@H](Cc1ccc(O)cc1)NC(=O)[C@H](CC(=O)O)NC(=O)[C@H](CO)NC(=O)[C@@H](NC(=O)[C@H](Cc1ccccc1)NC(=O)[C@@H](NC(=O)CNC(=O)[C@H](CCC(=O)O)NC(=O)C(C)(C)NC(=O)[C@@H](N)Cc1ccc(O)cc1)[C@@H](C)O)[C@@H](C)CC)C(=O)N[C@@H](C)C(=O)N[C@@H](CC(C)C)C(=O)N[C@@H](CC(=O)O)C(=O)N[C@@H](CCCCN)C(=O)N[C@H](C(=O)N[C@@H](Cc1c[nH]cn1)C(=O)N[C@@H](CCC(N)=O)C(=O)N[C@@H](CCC(N)=O)C(=O)N[C@@H](CC(=O)O)C(=O)N[C@@H](Cc1ccccc1)C(=O)N[C@H](C(=O)N[C@@H](CC(N)=O)C(=O)N[C@@H](Cc1c[nH]c2ccccc12)C(=O)N[C@@H](CC(C)C)C(=O)N[C@@H](CC(C)C)C(=O)N[C@@H](C)C(=O)N[C@@H](CCC(N)=O)C(=O)N[C@@H](CCCCN)C(=O)NCC(=O)N[C@@H](CCCCNC(=O)CC[C@H](NC(=O)CCCCCCCCCCCCCCCCCCC(=O)O)C(=O)O)C(=O)N[C@@H](CCCCN)C(=O)N[C@@H](CC(N)=O)C(=O)N[C@@H](CC(=O)O)C(=O)N[C@@H](Cc1c[nH]c2ccccc12)C(=O)N[C@@H](CCCCN)C(=O)N[C@@H](Cc1c[nH]cn1)C(=O)N[C@@H](CC(N)=O)C(=O)N[C@H](C(=O)N[C@H](C(=O)N[C@@H](CCC(N)=O)C(=O)O)[C@@H](C)O)[C@@H](C)CC)C(C)C)[C@@H](C)CC [GIP108] | above 10 nM | 218 nM | above 100 nM | 1960 nM | remained partially stable at 24 hours | 215 nM | failed to show detectable responses | small but significant decrease | – | – |
| 0.177 nM | GLP-1(7–36)·NH2 | above 0.1 nM | – | above 0.1 nM | 0.295 nM | – | – | – | – | significant responses | partial GLP-1R desensitisation, this was not statistically significant |
